# Laboratory results reported in US8637484B2, “Modulation of growth hormone receptor expression and insulin-like growth factor expression” (Antisense Therapeutic Limited, priority 2003, dated 2014).
# In the oligonucleotide strings, read from the 5' end, every base follows the letter of its sugar. An asterisk marks phosphorothioate; unmarked linkages are phosphodiester. Other units and linkages are bracketed, terminal groups are in braces. A string of capitals states the bases alone. e = 2'-O-(2-methoxyethyl) (MOE); [5mC] = 5-methylcytosine; d = 2'-deoxy (DNA)
# Tested on: human growth hormone receptor mRNA
# Assay: Inhibition of human growth hormone receptor mRNA levels in MCF7 cells, quantitative real-time PCR
# Assay type: cell-based
# Parameters: concentration or dose not given beside the values
# Details: averages from three experiments
# Method: The human breast carcinoma cell line MCF-7 was obtained from the American Type Culture Collection (Manassas, Va.). MCF-7 cells were routinely cultured in DMEM low glucose (Gibco/Life Technologies, Gaithersburg, Md.) supplemented with 10% fetal calf serum (Gibco/Life Technologies, Gaithersburg, Md.). Cells were routinely passaged by trypsinization and dilution when they reached 90% confluence. Cells were seeded into 96-well plates (Falcon-Primaria #3872) at a density of 7000 cells/well for use in RT-PCR analysis.
# When cells reached 65-75% confluency, they were treated with oligonucleotide. For cells grown in 96-well plates, wells were washed once with 100 μL OPTI-MEM™-1 reduced-serum medium (Invitrogen Corporation, Carlsbad, Calif.) and then treated with 130 μL of OPTI-MEM™-1 containing 3.75 μg/mL LIPOFECTIN™ (Invitrogen Corporation, Carlsbad, Calif.) and the desired concentration of oligonucleotide. Cells are treated and data are obtained in triplicate. After 4-7 hours of treatment at 37° C., the medium was replaced with fresh medium. Cells were harvested 16-24 hours after oligonucleotide treatment.
# Total RNA was isolated using an RNEASY 96™ kit and buffers purchased from Qiagen Inc. (Valencia, Calif.) following the manufacturer's recommended procedures. Briefly, for cells grown on 96-well plates, growth medium was removed from the cells and each well was washed with 200 μL cold PBS. 150 μL Buffer RLT was added to each well and the plate vigorously agitated for 20 seconds. 150 μL of 70% ethanol was then added to each well and the contents mixed by pipetting three times up and down. The samples were then transferred to the RNEASY 96™ well plate attached to a QIAVAC™ manifold fitted with a waste collection tray and attached to a vacuum source. Vacuum was applied for 1 minute. 500 μL of Buffer RW1 was added to each well of the RNEASY 96™ plate and incubated for 15 minutes and the vacuum was again applied for 1 minute. An additional 500 μL of Buffer RW1 was added to each well of the RNEASY 96™ plate and the vacuum was applied for 2 minutes. 1 mL of Buffer RPE was then added to each well of the RNEASY 96™ plate and the vacuum applied for a period of 90 seconds. The Buffer RPE wash was then repeated and the vacuum was applied for an additional 3 minutes. The plate was then removed from the QIAVAC™ manifold and blotted dry on paper towels. The plate was then re-attached to the QIAVAC™ manifold fitted with a collection tube rack containing 1.2 mL collection tubes. RNA was then eluted by pipetting 140 μL of RNAse free water into each well, incubating 1 minute, and then applying the vacuum for 3 minutes.
# Quantitation of growth hormone receptor mRNA levels was accomplished by real-time quantitative PCR using the ABI PRISM™ 7600, 7700, or 7900 Sequence Detection System (PE-Applied Biosystems, Foster City, Calif.) according to manufacturer's instructions. This is a closed-tube, non-gel-based, fluorescence detection system which allows high-throughput quantitation of polymerase chain reaction (PCR) products in real-time. As opposed to standard PCR in which amplification products are quantitated after the PCR is completed, products in real-time quantitative PCR are quantitated as they accumulate. This is accomplished by including in the PCR reaction an oligonucleotide probe that anneals specifically between the forward and reverse PCR primers, and contains two fluorescent dyes. A reporter dye (e.g., FAM or JOE, obtained from either PE-Applied Biosystems, Foster City, Calif., Operon Technologies Inc., Alameda, Calif. or Integrated DNA Technologies Inc., Coralville, Iowa) is attached to the 5′ end of the probe and a quencher dye (e.g., TAMRA, obtained from either PE-Applied Biosystems, Foster City, Calif., Operon Technologies Inc., Alameda, Calif. or Integrated DNA Technologies Inc., Coralville, Iowa) is attached to the 3′ end of the probe. When the probe and dyes are intact, reporter dye emission is quenched by the proximity of the 3′ quencher dye. […]
row,Substance,% INHIB [%]
1,272349 (antisense eA*eG*eT*e[5mC]*eT*dT*d[5mC]*d[5mC]*dA*dA*dA*d[5mC]*dA*d[5mC]*dA*e[5mC]*eA*eG*e[5mC]*eT) [compound 272349],68
2,272338 (antisense eG*eT*eG*e[5mC]*eT*dA*dT*dG*dG*dT*dT*dT*dG*d[5mC]*dA*eT*eT*e[5mC]*eA*eA) [compound 272338],78
3,227489 (antisense eT*eG*eT*eT*e[5mC]*dA*dG*dT*dT*dG*dG*dT*d[5mC]*dT*dG*eT*eG*e[5mC]*eT*e[5mC]) [compound 227489],75
4,227484 (antisense eT*eG*eG*eT*eA*dA*dG*dG*d[5mC]*dT*dT*dT*d[5mC]*dT*dG*eT*eG*eG*eT*eG) [compound 227484],63
5,227483 (antisense eA*eG*eG*e[5mC]*eT*dT*dT*d[5mC]*dT*dG*dT*dG*dG*dT*dG*eA*eT*eG*eT*eA) [compound 227483],75
6,272322 (antisense e[5mC]*eT*eG*eG*e[5mC]*dT*d[5mC]*dA*dT*d[5mC]*dA*dA*dT*dA*dT*e[5mC]*eT*eA*eG*e[5mC]) [compound 272322],84
7,227468 (antisense eT*e[5mC]*eA*eT*e[5mC]*dA*dA*dT*dA*dT*d[5mC]*dT*dA*dG*d[5mC]*eT*e[5mC]*eA*eA*eT) [compound 227468],62
8,272360 (antisense eT*eA*eT*eT*eA*dG*dT*dT*dA*d[5mC]*d[5mC]*dT*dT*dG*dA*eG*eG*eA*eG*eA) [compound 272360],0
9,272330 (antisense eG*eA*eT*eG*e[5mC]*dA*d[5mC]*dT*dT*dT*dT*dT*dG*dG*d[5mC]*eA*eT*e[5mC]*eT*eG) [compound 272330],47
10,272351 (antisense eA*eT*eA*eG*eA*dA*dA*dT*dG*dT*dT*dG*dT*d[5mC]*dA*eG*eG*e[5mC]*eT*eG) [compound 272351],57
11,272332 (antisense e[5mC]*eT*e[5mC]*eT*eT*dT*dG*dT*d[5mC]*dA*dG*dG*d[5mC]*dA*dA*eG*eG*eG*e[5mC]*eA) [compound 272332],75
12,272316 (antisense eA*eA*e[5mC]*eT*e[5mC]*dG*d[5mC]*d[5mC]*dA*dT*dA*dA*dT*dT*dT*e[5mC]*e[5mC]*eA*eG*eA) [compound 272316],64
13,272303 (antisense e[5mC]*e[5mC]*eA*eG*eA*dG*dA*dT*d[5mC]*d[5mC]*dA*dT*dA*d[5mC]*d[5mC]*eT*eG*eT*eA*eG) [compound 272303],55
14,272304 (antisense eT*eG*e[5mC]*eT*eA*dA*dG*dG*dA*dT*dA*dG*d[5mC]*dT*dG*e[5mC]*eT*eG*eT*eG) [compound 272304],48
15,272355 (antisense eT*eT*eG*eA*eG*dT*dG*dT*dT*d[5mC]*d[5mC]*dT*dA*dA*dA*eA*eT*eG*eA*eA) [compound 272355],24
16,272337 (antisense eA*eA*eA*e[5mC]*eA*dT*dA*dG*d[5mC]*d[5mC]*dA*dT*dT*d[5mC]*dA*eA*eT*eG*e[5mC]*eT) [compound 272337],39
17,272326 (antisense eA*e[5mC]*eT*e[5mC]*eA*dG*d[5mC]*dT*d[5mC]*d[5mC]*dT*dT*d[5mC]*dA*dG*eT*eA*eG*eG*eA) [compound 272326],77
18,272321 (antisense eA*eA*e[5mC]*e[5mC]*e[5mC]*dA*dA*dG*dA*dG*dT*d[5mC]*dA*dT*d[5mC]*eA*e[5mC]*eT*eG*eT) [compound 272321],64
19,272318 (antisense eT*e[5mC]*eA*eG*e[5mC]*dA*dT*dT*dT*dT*dA*dA*dT*d[5mC]*d[5mC]*eT*eT*eT*eG*e[5mC]) [compound 272318],55
20,227482 (antisense eT*eT*e[5mC]*eT*eG*dT*dG*dG*dT*dG*dA*dT*dG*dT*dA*eA*eA*eT*eG*eT) [compound 227482],53

row,Substance,% INHIB [%]
1,272327 (antisense eG*eG*eA*e[5mC]*eA*dT*d[5mC]*d[5mC]*d[5mC]*dT*dG*d[5mC]*d[5mC]*dT*dT*eA*eT*eT*e[5mC]*eT) [compound 272327],60
2,272335 (antisense eA*eA*eA*eT*eA*d[5mC]*dG*dT*dA*dG*d[5mC]*dT*d[5mC]*dT*dT*eG*eG*eG*eA*eA) [compound 272335],47
3,272329 (antisense eA*e[5mC]*eT*eT*eT*dT*dT*dG*dG*d[5mC]*dA*dT*d[5mC]*dT*dG*e[5mC]*e[5mC]*eT*e[5mC]*eA) [compound 272329],63
4,272359 (antisense eT*e[5mC]*e[5mC]*eA*eA*dA*dT*dA*dT*dT*d[5mC]*dT*dG*dG*dT*eA*e[5mC]*eT*eT*eT) [compound 272359],72
5,272319 (antisense eA*eT*eT*eT*eT*d[5mC]*d[5mC]*dT*dT*d[5mC]*d[5mC]*dT*dT*dG*dA*eG*eG*eA*eG*eA) [compound 272319],67
6,272339 (antisense eG*eT*eT*eT*eT*dA*d[5mC]*dA*dT*dA*dT*d[5mC]*d[5mC]*dA*dA*eA*e[5mC]*eT*eA*eT) [compound 272339],72
7,227452 (antisense eT*e[5mC]*eA*eG*eG*dG*d[5mC]*dA*dT*dT*d[5mC]*dT*dT*dT*d[5mC]*e[5mC]*eA*eT*eT*e[5mC]) [compound 227452],79
8,272324 (antisense eT*eA*eT*eG*eT*d[5mC]*dA*dT*dT*dG*dG*d[5mC]*dA*dT*dT*eG*eA*eA*eA*eT) [compound 272324],53
9,272315 (antisense e[5mC]*eA*eA*eT*eG*dA*dG*dT*dA*d[5mC]*dA*d[5mC]*dT*dG*dG*eA*eA*e[5mC]*eT*eG) [compound 272315],53
10,272310 (antisense eT*eT*eT*e[5mC]*eA*dT*d[5mC]*d[5mC]*dA*d[5mC]*dT*dG*dT*dA*d[5mC]*e[5mC]*eA*e[5mC]*e[5mC]*eA) [compound 272310],76
11,272346 (antisense e[5mC]*eT*e[5mC]*eT*eT*dG*dG*dA*dG*dA*dA*dA*dA*d[5mC]*d[5mC]*eA*eT*eA*eG*e[5mC]) [compound 272346],67
12,227500 (antisense e[5mC]*eA*eT*eA*eG*d[5mC]*dA*dG*d[5mC]*dA*dA*dA*dG*dT*dA*eG*e[5mC]*eA*eG*eA) [compound 227500],69
13,227453 (antisense e[5mC]*eA*eT*eA*eA*dT*d[5mC]*dA*dG*dG*dG*d[5mC]*dA*dT*dT*e[5mC]*eT*eT*eT*e[5mC]) [compound 227453],52
14,227501 (antisense eG*e[5mC]*eT*eA*eT*dT*dT*dT*dT*dG*dG*d[5mC]*dT*dA*dT*eA*eG*eA*eA*eA) [compound 227501],64
15,272302 (antisense eG*eA*eT*e[5mC]*e[5mC]*dA*dT*dA*d[5mC]*d[5mC]*dT*dG*dT*dA*dG*eG*eA*e[5mC]*e[5mC]*eT) [compound 272302],60
16,272325 (antisense eA*eA*eG*eG*e[5mC]*dA*dT*dA*dA*dG*dA*dG*dA*dT*d[5mC]*eT*eG*e[5mC]*eT*eT) [compound 272325],66
17,272320 (antisense eA*eG*eA*eT*eT*dG*dT*dG*dT*dT*d[5mC]*dA*d[5mC]*d[5mC]*dT*e[5mC]*e[5mC]*eT*e[5mC]*eT) [compound 272320],70
18,272353 (antisense eA*eT*eA*eA*eT*dG*dG*d[5mC]*dT*dT*dA*dT*dG*dT*dG*eG*e[5mC]*e[5mC]*eA*e[5mC]) [compound 272353],72
19,272350 (antisense eA*eG*eG*e[5mC]*eT*dG*dT*dT*dG*dT*dG*dA*dA*dA*dT*eA*eG*eT*eA*eA) [compound 272350],67
